Test results reported in patent US20250255867A1 (Kadmon Corporation, LLC, priority 2022, published 2025).

Conditions: Cohort 2 200 mg BID
Procedure: All responses were assessed by the investigators.
Reported Adverse Events. […] All-cause mortality data collected during the study were assessed for all enrolled participants. Disease progression related death was not reported as AE.
Number of Participants With Treatment-emergent Adverse Events (TEAEs), and Treatment-emergent Serious Adverse Events (TESAEs). […] TEAEs included both SAEs and non-SAEs. […] Analysis was performed on safety population which included all participants who received at least 1 dose of study medication.

## CC(C)NC(=O)COc1cccc(-c2nc(Nc3ccc4[nH]ncc4c3)c3ccccc3n2)c1 [Belumosudil, 2-{3-[4-(1H-indazol-5-ylamino)-2-quinazolinyl]phenoxy}-N-(propan-2-yl) acetamide]
  Oedema: # Events: 1
  Oedema: Affected/At Risk: 1/16
  Oedema: Affected/At Risk (%): (6.25%)
  Oesophageal ulcer: # Events: 1
  Oesophageal ulcer: Affected/At Risk: 1/16
  Oesophageal ulcer: Affected/At Risk (%): (6.25%)
  Oral candidiasis: # Events: 1
  Oral candidiasis: Affected/At Risk: 1/16
  Oral candidiasis: Affected/At Risk (%): (6.25%)
  Oropharyngeal pain: # Events: 0
  Oropharyngeal pain: Affected/At Risk: 0/16
  Oropharyngeal pain: Affected/At Risk (%): (0%)
  Orthopnoea: # Events: 0
  Orthopnoea: Affected/At Risk: 0/16
  Orthopnoea: Affected/At Risk (%): (0%)
  Osteonecrosis: # Events: 0
  Osteonecrosis: Affected/At Risk: 0/16
  Osteonecrosis: Affected/At Risk (%): (0%)
  Osteopenia: # Events: 1
  Osteopenia: Affected/At Risk: 1/16
  Osteopenia: Affected/At Risk (%): (6.25%)
  Osteoporosis: # Events: 1
  Osteoporosis: Affected/At Risk: 1/16
  Osteoporosis: Affected/At Risk (%): (6.25%)
  Overdose: # Events: 0
  Overdose: Affected/At Risk: 0/16
  Overdose: Affected/At Risk (%): (0%)
  Pain in extremity: # Events: 3
  Pain in extremity: Affected/At Risk: 2/16
  Pain in extremity: Affected/At Risk (%): (12.5%)
  Pain: # Events: 0
  Pain: Affected/At Risk: 0/16
  Pain: Affected/At Risk (%): (0%)
  Palpitations: # Events: 0
  Palpitations: Affected/At Risk: 0/16
  Palpitations: Affected/At Risk (%): (0%)
  Paraesthesia: # Events: 1
  Paraesthesia: Affected/At Risk: 1/16
  Paraesthesia: Affected/At Risk (%): (6.25%)
  Participants with TEAE: 16 (100%) participants
  Participants with TESAE: 6 (38%) participants
  Pericardial effusion: # Events: 0
  Pericardial effusion: Affected/At Risk: 0/16
  Pericardial effusion: Affected/At Risk (%): (0%)
  Peripheral coldness: # Events: 0
  Peripheral coldness: Affected/At Risk: 0/16
  Peripheral coldness: Affected/At Risk (%): (0%)
  Peripheral sensory neuropathy: # Events: 1
  Peripheral sensory neuropathy: Affected/At Risk: 1/16
  Peripheral sensory neuropathy: Affected/At Risk (%): (6.25%)
  Phlebitis: # Events: 1
  Phlebitis: Affected/At Risk: 1/16
  Phlebitis: Affected/At Risk (%): (6.25%)
  Photophobia: # Events: 1
  Photophobia: Affected/At Risk: 1/16
  Photophobia: Affected/At Risk (%): (6.25%)
  Platelet count decreased: # Events: 0
  Platelet count decreased: Affected/At Risk: 0/16
  Platelet count decreased: Affected/At Risk (%): (0%)
  Pleural effusion: # Events: 0
  Pleural effusion: Affected/At Risk: 0/16
  Pleural effusion: Affected/At Risk (%): (0%)
  Pneumonia respiratory syncytial viral: # Events: 1
  Pneumonia respiratory syncytial viral: Affected/At Risk: 1/16
  Pneumonia respiratory syncytial viral: Affected/At Risk (%): (6.25%)
  Pneumonia: # Events: 3
  Pneumonia: Affected/At Risk: 3/16
  Pneumonia: Affected/At Risk (%): (18.75%)
  Pollakiuria: # Events: 0
  Pollakiuria: Affected/At Risk: 0/16
  Pollakiuria: Affected/At Risk (%): (0%)
  Presyncope: # Events: 3
  Presyncope: Affected/At Risk: 3/16
  Presyncope: Affected/At Risk (%): (18.75%)
  Productive cough: # Events: 7
  Productive cough: Affected/At Risk: 2/16
  Productive cough: Affected/At Risk (%): (12.5%)
  Proteinuria: # Events: 1
  Proteinuria: Affected/At Risk: 1/16
  Proteinuria: Affected/At Risk (%): (6.25%)
  Pruritus: # Events: 4
  Pruritus: Affected/At Risk: 2/16
  Pruritus: Affected/At Risk (%): (12.5%)
  Pseudomonas infection: # Events: 2
  Pseudomonas infection: Affected/At Risk: 1/16
  Pseudomonas infection: Affected/At Risk (%): (6.25%)
  Pulmonary mass: # Events: 1
  Pulmonary mass: Affected/At Risk: 1/16
  Pulmonary mass: Affected/At Risk (%): (6.25%)
  Pyrexia: # Events: 6
  Pyrexia: Affected/At Risk: 3/16
  Pyrexia: Affected/At Risk (%): (18.75%)
  Rash erythematous: # Events: 1
  Rash erythematous: Affected/At Risk: 1/16
  Rash erythematous: Affected/At Risk (%): (6.25%)
  Rash maculo-papular: # Events: 0
  Rash maculo-papular: Affected/At Risk: 0/16
  Rash maculo-papular: Affected/At Risk (%): (0%)
  Rash pustular: # Events: 1
  Rash pustular: Affected/At Risk: 1/16
  Rash pustular: Affected/At Risk (%): (6.25%)
  Rash: # Events: 1
  Rash: Affected/At Risk: 1/16
  Rash: Affected/At Risk (%): (6.25%)
  Red blood cells urine positive: # Events: 1
  Red blood cells urine positive: Affected/At Risk: 1/16
  Red blood cells urine positive: Affected/At Risk (%): (6.25%)
  Renal failure: # Events: 1
  Renal failure: Affected/At Risk: 1/16
  Renal failure: Affected/At Risk (%): (6.25%)
  Respiratory syncytial virus infection: # Events: 1
  Respiratory syncytial virus infection: Affected/At Risk: 1/16
  Respiratory syncytial virus infection: Affected/At Risk (%): (6.25%)
  Respiratory tract infection fungal: # Events: 0
  Respiratory tract infection fungal: Affected/At Risk: 0/16
  Respiratory tract infection fungal: Affected/At Risk (%): (0%)
  Respiratory tract infection: # Events: 0
  Respiratory tract infection: Affected/At Risk: 0/16
  Respiratory tract infection: Affected/At Risk (%): (0%)
  Restless legs syndrome: # Events: 1
  Restless legs syndrome: Affected/At Risk: 1/16
  Restless legs syndrome: Affected/At Risk (%): (6.25%)
  Rosacea: # Events: 1
  Rosacea: Affected/At Risk: 1/16
  Rosacea: Affected/At Risk (%): (6.25%)
  SAE Abdominal wall haematoma, # events: 0
  SAE Abdominal wall haematoma, affected/at risk: 0/16
  SAE Acute kidney injury, # events: 1
  SAE Acute kidney injury, affected/at risk: 1/16
  SAE Acute lymphocytic leukaemia recurrent, # events: 0
  SAE Acute lymphocytic leukaemia recurrent, affected/at risk: 0/16
  SAE Acute respiratory failure, # events: 0
  SAE Acute respiratory failure, affected/at risk: 0/16
  SAE Anaphylactic reaction, # events: 0
  SAE Anaphylactic reaction, affected/at risk: 0/16
  SAE Bacteraemia, # events: 1
  SAE Bacteraemia, affected/at risk: 1/16
  SAE Cardiac arrest, # events: 0
  SAE Cardiac arrest, affected/at risk: 0/16
  SAE Cellulitis, # events: 1
  SAE Cellulitis, affected/at risk: 1/16
  SAE Chronic graft versus host disease in skin, # events: 1
  SAE Chronic graft versus host disease in skin, affected/at risk: 1/16
  SAE Citrobacter infection, # events: 1
  SAE Citrobacter infection, affected/at risk: 1/16
  SAE Dyspnoea, # events: 1
  SAE Dyspnoea, affected/at risk: 1/16
  SAE Embolism, # events: 1
  SAE Embolism, affected/at risk: 1/16
  SAE Febrile neutropenia, # events: 0
  SAE Febrile neutropenia, affected/at risk: 0/16
  SAE Graft versus host disease in lung, # events: 0
  SAE Graft versus host disease in lung, affected/at risk: 0/16
  SAE Hypoxia, # events: 0
  SAE Hypoxia, affected/at risk: 0/16
  SAE Influenza A virus test positive, # events: 0
  SAE Influenza A virus test positive, affected/at risk: 0/16
  SAE Influenza like illness, # events: 0
  SAE Influenza like illness, affected/at risk: 0/16
  SAE Lacunar infarction, # events: 1
  SAE Lacunar infarction, affected/at risk: 1/16
  SAE Leukaemia recurrent, # events: 0
  SAE Leukaemia recurrent, affected/at risk: 0/16
  SAE Lipomatosis, # events: 0
  SAE Lipomatosis, affected/at risk: 0/16
  SAE Metastases to meninges, # events: 0
  SAE Metastases to meninges, affected/at risk: 0/16
  SAE Muscular weakness, # events: 1
  SAE Muscular weakness, affected/at risk: 1/16
  SAE Myelodysplastic syndrome, # events: 0
  SAE Myelodysplastic syndrome, affected/at risk: 0/16
  SAE Non-cardiac chest pain, # events: 2
  SAE Non-cardiac chest pain, affected/at risk: 1/16
  SAE Obliterative bronchiolitis, # events: 0
  SAE Obliterative bronchiolitis, affected/at risk: 0/16
  SAE Pericardial effusion, # events: 0
  SAE Pericardial effusion, affected/at risk: 0/16
  SAE Pleural effusion, # events: 0
  SAE Pleural effusion, affected/at risk: 0/16
  SAE Pneumonia viral, # events: 0
  SAE Pneumonia viral, affected/at risk: 0/16
  SAE Pneumonia, # events: 1
  SAE Pneumonia, affected/at risk: 1/16
  SAE Pregnancy of partner, # events: 0
  SAE Pregnancy of partner, affected/at risk: 0/16
  SAE Proteinuria, # events: 0
  SAE Proteinuria, affected/at risk: 0/16
  SAE Respirovirus test positive, # events: 1
  SAE Respirovirus test positive, affected/at risk: 1/16
  SAE Small intestinal obstruction, # events: 0
  SAE Small intestinal obstruction, affected/at risk: 0/16
  SAE Stenotrophomonas infection, # events: 1
  SAE Stenotrophomonas infection, affected/at risk: 1/16
  SAE Urinary retention, # events: 0
  SAE Urinary retention, affected/at risk: 0/16
  SAE Urinary tract infection, # events: 1
  SAE Urinary tract infection, affected/at risk: 1/16
  SAE Varicella zoster virus infection, # events: 0
  SAE Varicella zoster virus infection, affected/at risk: 0/16
  SAE total, affected/at risk: 6/16
  Sinus pain: # Events: 0
  Sinus pain: Affected/At Risk: 0/16
  Sinus pain: Affected/At Risk (%): (0%)
  Sinusitis: # Events: 4
  Sinusitis: Affected/At Risk: 2/16
  Sinusitis: Affected/At Risk (%): (12.5%)
  Skin abrasion: # Events: 0
  Skin abrasion: Affected/At Risk: 0/16
  Skin abrasion: Affected/At Risk (%): (0%)
  Skin lesion: # Events: 1
  Skin lesion: Affected/At Risk: 1/16
  Skin lesion: Affected/At Risk (%): (6.25%)
  Skin papilloma: # Events: 0
  Skin papilloma: Affected/At Risk: 0/16
  Skin papilloma: Affected/At Risk (%): (0%)
  Spinal compression fracture: # Events: 0
  Spinal compression fracture: Affected/At Risk: 0/16
  Spinal compression fracture: Affected/At Risk (%): (0%)
  Squamous cell carcinoma of skin: # Events: 2
  Squamous cell carcinoma of skin: Affected/At Risk: 2/16
  Squamous cell carcinoma of skin: Affected/At Risk (%): (12.5%)
  Stomatitis: # Events: 1
  Stomatitis: Affected/At Risk: 1/16
  Stomatitis: Affected/At Risk (%): (6.25%)
  Superior vena cava syndrome: # Events: 2
  Superior vena cava syndrome: Affected/At Risk: 1/16
  Superior vena cava syndrome: Affected/At Risk (%): (6.25%)
  Tachycardia: # Events: 0
  Tachycardia: Affected/At Risk: 0/16
  Tachycardia: Affected/At Risk (%): (0%)
  Tendonitis: # Events: 1
  Tendonitis: Affected/At Risk: 1/16
  Tendonitis: Affected/At Risk (%): (6.25%)
  Testicular pain: # Events: 0
  Testicular pain: Affected/At Risk: 0/16
  Testicular pain: Affected/At Risk (%): (0%)
  Testicular swelling: # Events: 0
  Testicular swelling: Affected/At Risk: 0/16
  Testicular swelling: Affected/At Risk (%): (0%)
  Thoracic spinal stenosis: # Events: 0
  Thoracic spinal stenosis: Affected/At Risk: 0/16
  Thoracic spinal stenosis: Affected/At Risk (%): (0%)
  Thrombocytopenia: # Events: 1
  Thrombocytopenia: Affected/At Risk: 1/16
  Thrombocytopenia: Affected/At Risk (%): (6.25%)
  Thrombocytosis: # Events: 0
  Thrombocytosis: Affected/At Risk: 0/16
  Thrombocytosis: Affected/At Risk (%): (0%)
  Tinea pedis: # Events: 1
  Tinea pedis: Affected/At Risk: 1/16
  Tinea pedis: Affected/At Risk (%): (6.25%)
  Tooth fracture: # Events: 1
  Tooth fracture: Affected/At Risk: 1/16
  Tooth fracture: Affected/At Risk (%): (6.25%)
  Total Other Adverse Events: Affected/At Risk: 16/16
  Total Other Adverse Events: Affected/At Risk (%): (100%)
  Transfusion reaction: # Events: 0
  Transfusion reaction: Affected/At Risk: 0/16
  Transfusion reaction: Affected/At Risk (%): (0%)
  Tremor: # Events: 2
  Tremor: Affected/At Risk: 1/16
  Tremor: Affected/At Risk (%): (6.25%)
  Type 2 diabetes mellitus: # Events: 0
  Type 2 diabetes mellitus: Affected/At Risk: 0/16
  Type 2 diabetes mellitus: Affected/At Risk (%): (0%)
  Ulcerative keratitis: # Events: 1
  Ulcerative keratitis: Affected/At Risk: 1/16
  Ulcerative keratitis: Affected/At Risk (%): (6.25%)
  Upper respiratory tract infection: # Events: 13
  Upper respiratory tract infection: Affected/At Risk: 9/16
  Upper respiratory tract infection: Affected/At Risk (%): (56.25%)
  Upper-airway cough syndrome: # Events: 2
  Upper-airway cough syndrome: Affected/At Risk: 2/16
  Upper-airway cough syndrome: Affected/At Risk (%): (12.5%)
